Assay results taken from patent US20040152904A1, “Delta1 pyrrolines” (priority 2001, published 2004).

Key:
Type in all cases: in vivo
[1] = tested on: caterpillars of the diamond-back moth (Plutella xylostella); assay: Plutella test; conditions: 40 ppm active compound, cabbage leaves dipped
Experimental: Plutella Test Solvent: 30 parts by weight of dimethylformamide Emulsifier: 1 part by weight of alkylaryl polyglycol ether To produce a suitable preparation of active compound, 1 part by weight of active compound is mixed with the stated amounts of solvent and emulsifier, and the concentrate is diluted with emulsifier-containing water to the desired concentration. Cabbage leaves (Brassica oleracea) are treated by being dipped into the preparation of active compound of the desired concentration and are populated with caterpillars of the diamond-back moth (Plutella xylostella) whilst the leaves are still moist. After the desired period of time, the kill in % is determined. 100% means that all caterpillars have been killed; 0% means that none of the caterpillars have been killed.

[2] = tested on: army worm (Spodoptera exigua) caterpillars; assay: Spodoptera exigua test; conditions: cabbage leaves dipped
Experimental: Spodoptera exigua Test Solvent: 7 parts by weight of dimethylformamide Emulsifier: 1 part by weight of alkylaryl polyglycol ether To produce a suitable preparation of active compound, 1 part by weight of active compound is mixed with the stated amounts of solvent and emulsifier, and the concentrate is diluted with emulsifier-containing water to the desired concentration. Cabbage leaves (Brassica oleracea) are treated by being dipped into the preparation of active compound of the desired concentration and are populated with army worm (Spodoptera exigua) caterpillars whilst the leaves are still moist. After the desired period of time, the kill in % is determined. 100% means that all caterpillars have been killed; 0% means that none of the caterpillars have been killed.

Lucilia cuprina larvae = assay: Blowfly larvae test / development-inhibitory action; conditions: 100 ppm active compound
Experimental: Blowfly Larvae Test/Development-Inhibitory Action Test animals: Lucilia cuprina larvae Solvent: Dimethyl sulphoxide 20 mg of active compound are dissolved in 1 ml of dimethyl sulphoxide, more dilute concentrations are prepared by dilution with distilled water. About 20 Lucilia cuprina larvae are introduced into a test tube which contains about 1 cm^3 of horse meat and 0.5 ml of the preparation of active compound to be tested. The efficacy of the preparation of active compound is determined after 24 and 48 hours. The test tubes are transferred into beakers whose bottom is covered with sand. After a further 2 days, the test tubes are removed and the pupae are counted. The activity of the preparation of active compound is assessed by the number of flies that have hatched after 1.5 times the development time of an untreated control. 100% means that no flies have hatched; 0% means that all flies have hatched normally.

CC(C)(C)n1nnc(-c2ccc(-c3ccc(C4CCC(c5c(F)cccc5F)=N4)cc3)cc2)n1 (centres unmarked) [drawing 60] was tested. Which “Kill rate in % after 6d” value [1] did it give?
Its value is 100%.

For CC(C)(C)n1nnc(-c2ccc(-c3ccc(C4CCC(c5c(F)cccc5F)=N4)cc3)cc2)n1 (centres unmarked) [drawing 61], which “Kill rate in % after 6d” value ([2]; 8 ppm active compound) is on record?
Its value is 100%.

CCn1nnc(-c2ccc(-c3ccc(C4CCC(c5c(F)cccc5F)=N4)cc3)cc2)n1 (centres unmarked) [drawing 62] was tested. Which “Kill rate in % after 6d” value ([2]; 40 ppm active compound) did it give?
Its value is 100%.

With CCn1nnc(-c2ccc(-c3ccc(C4CCC(c5c(F)cccc5F)=N4)cc3)cc2)n1 (centres unmarked) [drawing 71] as the compound, how does the “Kill rate in % after 48h” value (Lucilia cuprina larvae) read?
The value was 100%.

How did the “Kill rate in % after 48h” value (Lucilia cuprina larvae) turn out when CCOCn1nnc(-c2ccc(-c3ccc(C4CCC(c5c(F)cccc5F)=N4)cc3)cc2)n1 (centres unmarked) [drawing 72] was run?
The value was 70%.
